“And” between values parts separate entries of the source, which are not always exact repeats. Identical values can stand only once.
Experiments:
CEM = test: MTT growth inhibition, CEM cells, 72 h; assay type: cell-based, human
Method: (§1) 5000 well-grown leukemia cells or normal human blood cells were taken and seeded into wells of a 96-well cell culture plate. The medium was 1640 cell medium containing 10% fetal bovine serum. 14-D-Valine-TPL with different concentrations was added, and after being uniformly mixed, the plate was placed in a carbon dioxide (5% CO2) cell incubator, and incubated at 37° C. for 72 hours. The concentration of live cells was then determined using the MTT assay. In this experiment, the cell viability in the control group (without the compound treatment) was set to be 100%, and the cell viability (%) after the action of the compound the half maximal growth inhibitory concentration of leukemia cells at 72 hours (IC50 value at 72 hours) and the therapeutic window index were calculated. Therapeutic window index=IC50 value of normal blood cells/IC50 value of leukemia cells. […] A larger therapeutic window indicates a better selectivity of the compound for tumor cells.
(§2) 5000 well-grown leukemia cells were taken and seeded into wells of a 96-well cell culture plate. The medium was 1640 cell medium containing 10% fetal bovine serum. 14-D-Valine-TPL with different concentrations was added, and after being uniformly mixed, the plate was placed in a carbon dioxide (5% CO2) cell incubator, and incubated at 37° C. for 72 hours. The concentration of live cells was then determined using the MTT assay. In this experiment, the cell viability in the control group (without the compound treatment) was set to be 100%, and the cell viability (%) after the action of the compound and the half maximal growth inhibitory concentration of leukemia cells at 72 hours (IC50 value at 72 hours) were calculated.
as §2, with “well-grown lymphocytes” for “well-grown leukemia cells”

Molt-4 = test: MTT growth inhibition, Molt-4 cells, 72 h; assay type: cell-based, human; conditions: Homo sapiens, MOLT-4, 72 h
Method: as §1, §2
as §2, with “well-grown lymphocytes” for “well-grown leukemia cells”

KG-1 = test: MTT growth inhibition, KG-1 cells, 72 h; assay type: cell-based; conditions: Homo sapiens, KG-1, MTT
Method: as §2

THP-1 = test: MTT growth inhibition, THP-1 cells, 72 h; assay type: cell-based; conditions: Homo sapiens, THP-1, MTT
Method: as §2

U937 = test: MTT growth inhibition, U937 cells, 72 h; assay type: cell-based; conditions: Homo sapiens, U-937
Method: as §2

[1] = tested on: human acute monocytic leukemia THP-1 cells; test: THP-1 subcutaneous xenograft in NOD/SCID mice; assay type: in vivo; conditions: for Tumor weight: THP-1, individual mice, end of experiment
Method: (§3) 7-week old female NOD/SCID mice were taken and inoculated subcutaneously with 1×10^7 cells (0.2 ml) per mouse in axilla, with human acute myelogenous leukemia KG-1a cells on the left and human acute monocytic leukemia THP-1 cells on the right. When tumors grew to a tumor size of around 0.5 cm, the mice were randomized into groups with 3 mice each. An equivalent amount of PBS was used for the control group, and the 14-D-Valine-TPL group was divided into two groups with 0.2 mg/kg body weight and 0.4 mg/kg body weight: intragastric administration 2 times a day (one at 8 a.m. and one at 4 p.m.) for consecutive 14 days of treatment. An observation was made for total 30 days, during which the conditions of the mice such as tumor size, weight, activity, diet, and the like were measured. At the end of the experiment, the mice were sacrificed, tumor tissues were taken and the tumors were weighed, and major organs and tissues of the mice such as liver, spleen, heart, lung, large intestine, small intestine, and the like were examined.

[2] = Body weight and organ examination of tumour-bearing mice; assay type: in vivo, NOD/SCID mice; conditions: for Body weight: mice bearing KG-1a and THP-1, 14 days, individual mice, listed as DV
Method: as §3
as §3, with “the left.” for “the left and human acute monocytic leukemia THP-1 cells on the right.”, “around 50-100 mm^3,” for “around 0.5 cm,”, “the TPL-LLV” for “the 14-D-Valine-TPL”, “with 0.23” for “with 0.2”, “and 0.46” for “and 0.4”, “intragastric administration,” for “intragastric administration”
as §3, with “the left.” for “the left and human acute monocytic leukemia THP-1 cells on the right.”, “around 50-100 mm^3,” for “around 0.5 cm,”, “the TPL-DLV” for “the 14-D-Valine-TPL”, “with 0.23” for “with 0.2”, “and 0.46” for “and 0.4”, “intragastric administration,” for “intragastric administration”
7-week old female NOD/SCID mice were taken and inoculated subcutaneously with 1×10^7 cells (0.2 ml) per mouse in axilla, with human acute myelogenous leukemia KG-1a cells on the left. When tumors grew to a tumor size of around 50-100 mm^3, the mice were randomized into groups with 3 mice each. An equivalent amount of PBS was used for the control group, and the TPL-DLV group was divided into two groups with 0.32 mg/kg body weight and 0.64 mg/kg body weight: intragastric administration, 2 times a day (one at 8 a.m. and one at 4 p.m.) for consecutive 14 days of treatment. An observation was made for total 30 days, during which the conditions of the mice such as tumor size, weight, activity, diet, and the like were measured. At the end of the experiment, the mice were sacrificed, tumor tissues were taken and the tumors were weighed, and major organs and tissues of the mice such as liver, spleen, heart, lung, large intestine, small intestine, and the like were examined. […]

[3] = tested on: human leukemia cells (Jurkat, CEM, Molt-4, Sup-B15); test: Therapeutic window over 4 types of human leukemia cells (MTT); assay type: cell-based; conditions: for 4 different types of human leukemia cells
Method: as §1

[4] = dose of 0.4 mg per kilogram of the body weight

## CC(C)[C@@H](N)C(=O)O[C@@H]1[C@@]2(C(C)C)O[C@H]2[C@@H]2O[C@]23[C@]12O[C@H]2C[C@H]1C2=C(CC[C@@]13C)C(=O)OC2 [14-D-Valine-TPL, 14-Dextro-Valine-Triptolide]
CEM; Homo sapiens, CCRF-CEM, 72 h
  IC50: 25.5 nM
CEM; IC50 of normal blood cells/IC50 of CEM
  Therapeutic window: 7.89
Molt-4
  IC50: 10.8 nM
KG-1
  IC50: 49 nM
THP-1
  IC50: 16 nM
U937
  IC50: 60 nM
[1]; trifluoroacetate 0.2 mg/kg intragastric 2 times a day, 14 days, listed as DV
  Tumor weight: 0 g (3×) and 0.21 g and 0.06 g and 0.28 g
[1]; trifluoroacetate 0.4 mg/kg intragastric 2 times a day, 14 days
  Tumor weight: 0 g
[1]; THP-1 xenograft, intragastric 2 times a day, 14 days, dose-dependent effect
  growth of THP-1 in mice in vivo (in words): significantly inhibit the growth
[1]; [4]
  regression of THP-1 xenograft tumors: complete regression
[2]; [4]
  weight loss in the mice (in words): no significant weight losses
[2]; 0.2 mg/kg intragastric 2 times a day, mice bearing KG-1a xenografts
  Body weight: 18.5 g and 20.2 g and 19.9 g and 18.1 g and 19.0 g and 20.4 g
[2]; 0.2 mg/kg intragastric 2 times a day, mice bearing THP-1 xenografts
  Body weight: 18.5 g and 20.2 g and 19.9 g and 18.1 g and 19.0 g and 20.4 g
[2]; 0.4 mg/kg intragastric 2 times a day, mice bearing KG-1a xenografts
  Body weight: 20.4 g and 21.0 g and 21.1 g and 21.4 g and 20.8 g and 19.1 g
[2]; 0.4 mg/kg intragastric 2 times a day, mice bearing THP-1 xenografts
  Body weight: 20.4 g and 21.0 g and 21.1 g and 21.4 g and 20.8 g and 19.1 g
[2]; mice of Example 9
  anatomical examination of major organs (heart, lung, liver, spleen, large intestine, small intestine): no significant abnormalities
[3]
  therapeutic window indices: 5.54-18.58
